Like-named read-outs stand apart in the source and are kept apart here.
Biological target: T1, Recombinant human cathepsin A (Homo sapiens, UniProt P10619)
T1 construct: Recombinant human cathepsin A (residues 29-480, with a C-terminal 10-His tag); 10-His (C); purchased R&D Systems 1049-SE
T1 sequence (P10619 29-312 limits assumed): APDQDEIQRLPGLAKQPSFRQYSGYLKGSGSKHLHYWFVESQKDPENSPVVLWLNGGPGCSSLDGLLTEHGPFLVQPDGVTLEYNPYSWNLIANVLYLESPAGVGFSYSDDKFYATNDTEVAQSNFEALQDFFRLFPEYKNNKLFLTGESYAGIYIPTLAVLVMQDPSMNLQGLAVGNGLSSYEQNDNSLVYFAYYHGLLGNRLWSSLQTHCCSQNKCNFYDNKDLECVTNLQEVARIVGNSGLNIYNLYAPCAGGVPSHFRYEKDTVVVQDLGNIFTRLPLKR
T1 sequence (P10619 327-480 limits assumed): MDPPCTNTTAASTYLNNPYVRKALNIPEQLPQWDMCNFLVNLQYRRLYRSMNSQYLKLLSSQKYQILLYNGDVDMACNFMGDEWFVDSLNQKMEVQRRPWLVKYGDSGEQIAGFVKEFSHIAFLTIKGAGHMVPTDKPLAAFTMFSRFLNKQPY
Assay: Cathepsin A inhibitory activity
Format: biochemical
In short: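 Human cathepsin A (res. 29-480, C-His10) pre-activated with cathepsin L (MES pH 6.0, DTT, 15 min, 37 °C; quenched with 10 μM E-64). Enzyme (833 ng/ml) preincubated 15 min RT with compound in MES pH 5.5/DTT, then 2 μM Bodipy FL-bradykinin for 15 min RT. Capillary electrophoresis product/substrate peak areas; IC50 from % inhibition.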

[1] = recombinant human cathepsin A, read-out: Activity (2): Cathepsin A inhibitory activity, IC50 class
[2] = recombinant human cathepsin A 833 ng/ml, Bodipy FL-labeled bradykinin 2 μM, pH 5.5, read-out: CATH-A IC50

SMILES	IC50 [1]	IC50 [2]
COc1ccc([C@H](CC(=O)O)NC(=O)c2cc(O)n(-c3ccc(F)cc3)n2)cc1 [Example 435]	100 to 1000 nM	
COc1ccc(C(CC(=O)O)NC(=O)c2cc(O)n(-c3ccc(F)cc3)n2)c(OC)c1 (stereo not drawn) [Example 436]	1000 to 30000 nM	
O=C(O)CC(NC(=O)c1cc(O)n(-c2ccc(F)cc2)n1)c1ccc(Oc2ccccc2)cc1 (stereo not drawn) [Example 437]	100 to 1000 nM	
COc1ccc([C@H](CC(=O)O)NC(=O)c2cc(O)n(-c3ccc(F)cc3)n2)cn1 [Example 438]	100 to 1000 nM	
O=C(O)CC(NC(=O)c1cc(O)n(-c2ccnc(Cl)c2)n1)c1ccc(-c2ccccc2)cc1 (stereo not drawn) [Example 439]	100 to 1000 nM	
O=C(O)CC(NC(=O)c1cc(O)n(-c2cccnc2)n1)c1ccc(-c2ccccc2)cc1 (stereo not drawn) [Example 440]	1000 to 30000 nM	
COc1cccc(F)c1C(CC(=O)O)NC(=O)c1cc(O)n(-c2ccccc2)n1 (stereo not drawn) [Example 441, 3-(2-Fluoro-6-methoxy-phenyl)-3-[(5-hydroxy-1-phenyl-1H-pyrazole-3-carbonyl)-amino]-propionic acid]	100 to 1000 nM	513 nM
O=C(O)CC(NC(=O)c1cc(O)n(-c2ccccc2)n1)c1ccccc1Oc1ccccc1 (stereo not drawn) [Example 442]	1000 to 30000 nM	
O=C(O)CC(NC(=O)c1cc(O)n(-c2ccccc2)n1)c1cc(F)ccc1C(F)(F)F (stereo not drawn) [Example 443, 3-(5-Fluoro-2-trifluoromethyl-phenyl)-3-[(5-hydroxy-1-phenyl-1H-pyrazole-3-carbonyl)-amino]-propionic acid]	100 to 1000 nM	220 nM
O=C(O)CC(NC(=O)c1cc(O)n(-c2ccccc2)n1)c1cc(Cl)ccc1Cl (stereo not drawn) [Example 444, 3-(2,5-Dichloro-phenyl)-3-[(5-hydroxy-1-phenyl-1H-pyrazole-3-carbonyl)-amino]-propionic acid]	< 100 nM	83.1 nM
Cc1ccc([C@H](CC(=O)O)NC(=O)c2cc(O)n(-c3ccccc3)n2)cc1 [Example 445, (S)-3-[(5-Hydroxy-1-phenyl-1H-pyrazole-3-carbonyl)-amino]-3-p-tolyl-propionic acid]	100 to 1000 nM	130 nM
O=C(O)C[C@H](NC(=O)c1cc(O)n(-c2ccccc2)n1)c1ccccc1Cl [Example 446, (S)-3-(2-Chloro-phenyl)-3-[(5-hydroxy-1-phenyl-1H-pyrazole-3-carbonyl)-amino]-propionic acid]	100 to 1000 nM	120 nM
Cc1c(F)cccc1C(CC(=O)O)NC(=O)c1cc(O)n(-c2ccc(F)cc2F)n1 (stereo not drawn) [Example 447, 3-{[1-(2,4-Difluoro-phenyl)-5-hydroxy-1H-pyrazole-3-carbonyl]-amino}-3-(3-fluoro-2-methyl-phenyl)-propionic acid]	100 to 1000 nM	114 nM
CN(C)c1ccc(C(CC(=O)O)NC(=O)c2cc(O)n(-c3ccc(F)cc3F)n2)c(Cl)c1 (stereo not drawn) [Example 448, 3-(2-Chloro-4-dimethylamino-phenyl)-3-{[1-(2,4-difluoro-phenyl)-5-hydroxy-1H-pyrazole-3-carbonyl]-amino}-propionic acid]	100 to 1000 nM	884 nM
COc1cccc(F)c1C(CC(=O)O)NC(=O)c1cc(O)n(-c2ccc(F)cc2F)n1 (stereo not drawn) [Example 449, 3-{[1-(2,4-Difluoro-phenyl)-5-hydroxy-1H-pyrazole-3-carbonyl]-amino}-3-(2-fluoro-6-methoxy-phenyl)-propionic acid]	100 to 1000 nM	176 nM
O=C(O)CC(NC(=O)c1cc(O)n(-c2ccc(F)cc2F)n1)c1cccc2c1OC(F)(F)O2 (stereo not drawn) [Example 450, 3-(2,2-Difluoro-benzo[1,3]dioxol-4-yl)-3-{[1-(2,4-difluoro-phenyl)-5-hydroxy-1H-pyrazole-3-carbonyl]-amino}-propionic acid]	100 to 1000 nM	409 nM
O=C(O)CC(NC(=O)c1cc(O)n(-c2ccc(F)cc2F)n1)c1cc(F)ccc1F (stereo not drawn) [Example 451, 3-(2,5-Difluoro-phenyl)-3-{[1-(2,4-difluoro-phenyl)-5-hydroxy-1H-pyrazole-3-carbonyl]-amino}-propionic acid]	100 to 1000 nM	233 nM
